{
  "source": "patent US20260235623A1",
  "about": "“EFFECT INDUCED BY A SODIUM-GLUCOSE COTRANSPORTER INHIBITOR (SGLTi) IN A SUBJECT SUFFERING FROM A CARDIOVASCULAR DISEASE” (Roche Diagnostics Operations, Inc., priority 2023, published 2026)",
  "key": {"NT-proBNP": {"test_system": "NT-proBNP", "conditions": "for median NT-proBNP concentration: baseline median 1396.30; for change of amount of NT-proBNP before and after initiation: before and after SGLT2i initiation", "excerpt": "(§1) A total of 100 patients with stable chronic HFrEF participating in a prospective registry at the heart failure outpatient clinic at the Medical University of Vienna, which has been imputed with all clinically relevant data, are included in the present study. The inclusion criteria of the registry are documented chronic HFrEF, an age of at least 18 years and stable heart failure related medical therapy in the last 3 months. Inclusion criteria for this study is the participation in the registry, and the absence of any exclusion criteria avoiding the prescription of SGLT-2 inhibitor (Dapagliflozin). Visits at the outpatient clinic are conducted at baseline (visit 0), at week 4 after SGLT-2 inhibitor therapy initiation (visit 1), after 3 month (visit 2), after 6 months (visit 3), and every 6 months thereafter.\n(§2) Blood and urine samples are drawn from a peripheral vein and collected at baseline prior to administration of the SGLT-2 inhibitor and repeated at every regularly scheduled study-visit. Samples are used for (1.) routine laboratory analysis and (2.) biobank storage.\n(§3) Blood for the biobank is immediately centrifuged and plasma samples are stored at-80° C. for future analysis. The plasma samples and urine samples are stored in the central “biobank” facility of the Department of Laboratory Medicine at the Medical University of Vienna.\n(§4) FABP3 and additional cardiac biomarkers N-terminal B-type natriuretic peptide (NT-proBNP) and GDF-15 are measured in plasma using the Elecsys Systems (Roche Diagnostics, Mannheim, Germany)."}, "FABP3/GDF-15": {"test_system": "FABP3/GDF-15", "conditions": "for median FABP3/GDF-15 ratio: FABP3 in ng/ml, GDF-15 in pg/mL, baseline median ratio 0.017", "excerpt": "as §1, §2, §3, §4"}, "FABP3/NT-proBNP": {"test_system": "FABP3/NT-proBNP", "conditions": "for median FABP3/NT-proBNP ratio: FABP3 in ng/ml, NT-proBNP in pg/mL, baseline median ratio 0.026", "excerpt": "as §1, §2, §3, §4"}, "FABP3": {"test_system": "FABP3", "conditions": "for amount of FABP3 higher compared to baseline: 3 months (V2)", "excerpt": "as §1, §2, §3, §4"}, "GDF-15": {"test_system": "GDF-15", "conditions": "baseline median 2439.34", "excerpt": "as §1, §2, §3, §4"}, "[1]": {"conditions": "V1: week 4 after SGLT2i therapy initiation"}, "[2]": {"conditions": "after 6 months (V3), vs. baseline"}},
  "note": "Where two headings read alike, the source gives them in different places.",
  "data": [
    {"smiles": "CCOc1ccc(Cc2cc([C@@H]3O[C@H](CO)[C@@H](O)[C@H](O)[C@H]3O)ccc2Cl)cc1", "note": "[SGLT2i, Dapagliflozin]", "values": [
      {"measurement": "median NT-proBNP concentration", "setting": "NT-proBNP; [1]", "value": 1115.68, "unit": "pg/mL"},
      {"measurement": "median NT-proBNP concentration", "setting": "NT-proBNP; V2: 3 months", "value": 1191.95, "unit": "pg/mL"},
      {"measurement": "median NT-proBNP concentration", "setting": "NT-proBNP; V3: 6 months", "value": 889.21, "unit": "pg/mL"},
      {"measurement": "median NT-proBNP concentration", "setting": "NT-proBNP; V4: 12 months", "value": 1172.84, "unit": "pg/mL"},
      {"measurement": "change of amount of NT-proBNP before and after initiation", "setting": "NT-proBNP", "value": "does not correlate"},
      {"measurement": "change of amount of NT-proBNP before and after initiation", "setting": "NT-proBNP; listed as SGLTi", "value": "does not significantly change"},
      {"measurement": "median FABP3/GDF-15 ratio", "setting": "FABP3/GDF-15; V1: week 4", "value": 0.016},
      {"measurement": "median FABP3/GDF-15 ratio", "setting": "FABP3/GDF-15; V2: 3 months", "value": 0.016},
      {"measurement": "median FABP3/GDF-15 ratio", "setting": "FABP3/GDF-15; V3: 6 months", "value": 0.016},
      {"measurement": "median FABP3/GDF-15 ratio", "setting": "FABP3/GDF-15; V4: 12 months", "value": 0.019},
      {"measurement": "change of FABP3/GDF-15 ratio after initiation", "setting": "FABP3/GDF-15; after SGLT2i initiation", "value": "remains stable"},
      {"measurement": "peak of relative increase of FABP3/GDF-15 ratio", "setting": "FABP3/GDF-15; at 12 months (V4), vs. baseline", "value": 12, "unit": "%"},
      {"measurement": "median FABP3/NT-proBNP ratio", "setting": "FABP3/NT-proBNP; V1: week 4", "value": 0.032},
      {"measurement": "median FABP3/NT-proBNP ratio", "setting": "FABP3/NT-proBNP; V2: 3 months", "value": 0.039},
      {"measurement": "median FABP3/NT-proBNP ratio", "setting": "FABP3/NT-proBNP; V3: 6 months", "value": 0.046},
      {"measurement": "median FABP3/NT-proBNP ratio", "setting": "FABP3/NT-proBNP; V4: 12 months", "value": 0.033},
      {"measurement": "peak of relative increase of FABP3/NT-proBNP ratio", "setting": "FABP3/NT-proBNP; [2]", "value": 77, "unit": "%"},
      {"measurement": "change of FABP3/NT-proBNP ratio after initiation", "setting": "FABP3/NT-proBNP; over time after SGLT2i initiation", "value": "increases over time"},
      {"measurement": "relative increase of FABP3 concentration alone", "setting": "FABP3; [2]", "value": 19, "unit": "%"},
      {"measurement": "change in plasma concentration of FABP3 after therapy initiation", "setting": "FABP3; chronic HFrEF patients", "value": "increase in plasma concentration of FABP3"},
      {"measurement": "median FABP3 plasma concentration", "setting": "FABP3; chronic HFrEF patients, V1: week 4 after SGLT2i therapy initiation, baseline median 37.82", "value": 40.86, "unit": "ng/mL"},
      {"measurement": "median FABP3 plasma concentration", "setting": "FABP3; chronic HFrEF patients, V2: 3 months, baseline median 37.82", "value": 45.14, "unit": "ng/mL"},
      {"measurement": "median FABP3 plasma concentration", "setting": "FABP3; chronic HFrEF patients, V3: 6 months, baseline median 37.82", "value": 44.36, "unit": "ng/mL"},
      {"measurement": "FABP3 plasma concentration", "setting": "FABP3; chronic HFrEF patients, V4: 12 months, baseline median 37.82", "value": 44.47, "unit": "ng/mL"},
      {"measurement": "amount of FABP3 higher compared to baseline", "setting": "FABP3; patient subgroup with high baseline FABP3 (above 37.8 ng/ml)", "value": "about 14%"},
      {"measurement": "amount of FABP3 higher compared to baseline", "setting": "FABP3; patient subgroup with low baseline FABP3 (below 37.8 ng/ml)", "value": "about 27%"},
      {"measurement": "median FABP3 concentration", "setting": "FABP3; patients with high baseline FABP3 (above 37.8 ng/ml), V1: week 4, baseline median 47.97", "value": 53.56, "unit": "ng/mL"},
      {"measurement": "median FABP3 concentration", "setting": "FABP3; patients with high baseline FABP3 (above 37.8 ng/ml), V2: 3 months, baseline median 47.97", "value": 54.73, "unit": "ng/mL"},
      {"measurement": "median FABP3 concentration", "setting": "FABP3; patients with high baseline FABP3 (above 37.8 ng/ml), V3: 6 months, baseline median 47.97", "value": 54.51, "unit": "ng/mL"},
      {"measurement": "FABP3 concentration", "setting": "FABP3; patients with high baseline FABP3 (above 37.8 ng/ml), V4: 12 months, baseline median 47.97", "value": 53.23, "unit": "ng/mL"},
      {"measurement": "median FABP3 concentration", "setting": "FABP3; patients with low baseline FABP3 (below 37.8 ng/mL), V1: week 4, baseline median 29.05", "value": 31.41, "unit": "ng/mL"},
      {"measurement": "median FABP3 concentration", "setting": "FABP3; patients with low baseline FABP3 (below 37.8 ng/mL), V2: 3 months, baseline median 29.05", "value": 38.86, "unit": "ng/mL"},
      {"measurement": "median FABP3 concentration", "setting": "FABP3; patients with low baseline FABP3 (below 37.8 ng/mL), V3: 6 months, baseline median 29.05", "value": 36.41, "unit": "ng/mL"},
      {"measurement": "FABP3 concentration", "setting": "FABP3; patients with low baseline FABP3 (below 37.8 ng/mL), V4: 12 months, baseline median 29.05", "value": 36.76, "unit": "ng/mL"},
      {"measurement": "time for which the FABP3 increase is apparent", "setting": "FABP3; under SGLTi treatment", "value": "≥ 12", "unit": "months"},
      {"measurement": "median GDF-15 concentration", "setting": "GDF-15; [1]", "value": 2657.16, "unit": "pg/mL"},
      {"measurement": "median GDF-15 concentration", "setting": "GDF-15; V2: 3 months", "value": 3036.18, "unit": "pg/mL"},
      {"measurement": "median GDF-15 concentration", "setting": "GDF-15; V3: 6 months", "value": 2414.01, "unit": "pg/mL"},
      {"measurement": "median GDF-15 concentration", "setting": "GDF-15; V4: 12 months", "value": 2039.85, "unit": "pg/mL"}
    ]}
  ]
}
